Laboratory results published in PMC8064491, “Design and Synthesis of Novel Symmetric Fluorene-2,7-Diamine Derivatives as Potent Hepatitis C Virus Inhibitors” (Pharmaceuticals, 2021).
Like-named read-outs stand apart in the source and are kept apart here.

What was measured:
[1] = system: HCV subgenomic reporter replicon of genotype 1b (strain Con1); assay: Anti-HCV 1b activity, luciferase reporter replicon assay in Huh5-2 cells; assay type: cell-based, Hepatitis C virus; settings: for EC50: Hepatitis C virus
Procedure: (§1) The HCV RNA replication inhibitory effect of the novel compounds and their impact on cell viability was tested in the stable cell line Huh5-2 carrying an HCV subgenomic reporter replicon of genotype 1b (strain Con1). The viral replication level was measured in terms of the activity of the co-expressed firefly luciferase (F-Luc). Several concentrations of the tested compounds were prepared in a cell culture medium and were used to treat the cells for 72 h. The solvent DMSO was added as a control with a final concentration of 0.2% so as not to impact viral replication (data not shown). First, different compound concentrations of up to 100 μM were evaluated for their effect on cell viability; results are reported as the median cytotoxic concentration (CC50). Next, all compounds were screened for their anti-HCV activity at a concentration of 1 µM, and compounds showing ≥50% activity were further tested in several concentrations to calculate the median effective concentration (EC50) values (Table 1 and Table 2). The anti-HCV activity of the analogs 1–32 was estimated by quantifying luciferase activity resulting from viral replication. Cytotoxicity was determined by measuring the intracellular levels of ATP. The selectivity index (SI50) was calculated as the ratio of CC50 to EC50 and was calculated as an indication of the compounds’ safety. We used daclatasvir as a positive control.
(§2) The stable replicon cell line Huh5-2 (genotype 1b; Con1) (kindly provided by R. Bartenschlager, Heidelberg University, Germany) has been described previously. The stable cell lines Huh7.5-3a and Huh7.5-4a have been constructed with the subgenomic reporter replicons of HCV 3a (S52) S52-SG(Feo)(AII) and HCV 4a (ED43) ED43-SG(Feo)(VYG) (kindly provided by C.M. Rice, The Rockefeller University, NY). Cells were cultured in high glucose (25 mM) Dulbecco’s modified minimal essential medium (Invitrogen), supplemented with 2 mM L-glutamine, 0.1 mM non-essential amino acids, 100 U/mL penicillin, 100 µg/mL streptomycin, and 10% (v/v) fetal calf serum (referred to as complete DMEM). Complete DMEM was supplemented with G418 at 500 μg/mL for Huh5-2, 750 μg/mL for Huh7.5-3a, and 350 μg/mL for Huh7.5-4a.
(§3) Cells were treated with serial dilutions of the test compounds or the solvent DMSO for 72 h. Antiviral activity and cytotoxicity were determined by measuring virus-derived luciferase activity or intracellular ATP levels, respectively. The median effective concentration (EC50) of the compounds, reducing luciferase signal by 50%, and their median cytotoxic concentration (CC50), causing 50% cell death, were determined by nonlinear regression analysis using the Prism 6.0 software (GraphPad Software Inc.). Daclatasvir was kindly provided by Dr. Marc Windisch (Institut Pasteur Korea).
Firefly luciferase activity was measured using Luciferase Assay System (Promega), according to the manufacturer’s instructions. Measurements were performed with a GloMax 20/20 single tube luminometer (Promega) for 10 s. Values were normalized to total protein amounts as quantified by Bradford assay (Pierce).

[2] = system: HCV 1b RNA; assay: Quantification of (+) strand HCV RNA by RT-qPCR in Huh5-2 cells; assay type: cell-based; settings: Hepatitis C virus, Huh-5-2, normalized to YWHAZ
Procedure: The HCV RNA and NS5A protein levels were determined in cells treated with compound 26 using reverse transcription-quantitative polymerase chain reaction (RT-qPCR) or Western blot analysis, respectively (Figure 5A).
Total RNA was extracted from Huh5-2 cells with Nucleozol reagent (Macherey-Nagel), according to the manufacturer’s instructions, and used to perform reverse-transcription (RT) and quantitative real-time polymerase chain reaction (qPCR) for replicon RNA. RT was performed using Moloney Murine Leukemia Virus (MMLV) reverse transcriptase (Promega) and reverse primers specific for Con1 IRES (5’-[…]-3’) and the housekeeping gene YWHAZ (5’- […]-3’). For qPCR, primers specific for the Con1 IRES (forward: 5’-[…]-3’and reverse: 5’-[…]-3’) and KAPA SYBR FAST qPCR Master Mix (Kapa Biosystems) were used. YWHAZ mRNA was used as a normalization control (forward: 5’-[…]-3’ and reverse: 5’- […]-3’).
Figure 5 Anti-HCV activity of compound 26 at the level of viral RNA and protein. Different concentrations of compound 26, or the solvent DMSO (control—C), were used to treat Huh5-2 cells. (A) Quantification of (+) strand HCV RNA by RT-qPCR. Values are expressed as a percentage of those obtained from control cells. mRNA levels of the housekeeping gene 14-3-3-zeta polypeptide (YWHAZ) were used for normalization. (B) (Top) Western blot analysis for NS5A. β-actin was used as a loading control. […]

[3] = system: HCV subgenomic replicon of genotype 4a (strain ED43); assay: Anti-HCV 4a activity, replicon assay in Huh7.5-4a cells; assay type: cell-based; settings: Hepatitis C virus, read-out: EC50 GT 4a
Excerpt: (§4) Compound 26, showing the highest activity on genotype 1b was further tested against HCV 3a and 4a replicons. The fact that genotype 4 is highly heterogeneous, of less response to DAAs, and the most prevalent genotype in Egypt, made this genotype of specific interest. Moreover, genotype 3 is the most difficult to treat genotype using DAAs, especially in patients with liver cirrhosis. Specifically, Huh7.5-3a and Huh7.5-4a stable cell lines having HCV subgenomic replicons of genotypes 3a (strain S52) and 4a (strain ED43), respectively, were treated with different concentrations of compound 26. […] Further structural optimization is required, and testing compound 26 in combination with other DAAs could improve the clinical outcome.
The stable replicon cell line Huh5-2 (genotype 1b; Con1) (kindly provided by R. Bartenschlager, Heidelberg University, Germany) has been described previously. […]
(§5) Cells were treated with serial dilutions of the test compounds or the solvent DMSO for 72 h. Antiviral activity and cytotoxicity were determined by measuring virus-derived luciferase activity or intracellular ATP levels, respectively. […]
(§6) Firefly luciferase activity was measured using Luciferase Assay System (Promega), according to the manufacturer’s instructions. […] Values were normalized to total protein amounts as quantified by Bradford assay (Pierce).

[4] = system: HCV genotype 1b replicon (Huh5-2 cells); assay: Drug-drug interaction with daclatasvir in Huh5-2 replicon cells (F-Luc activity); assay type: cell-based, Hepatitis C virus
Procedure: Next, we investigated the effect of compound 26 in the presence of daclatasvir (DCV) in Huh5-2 replicon cells. […] It is worth noting that NS5A is a very flexible protein and can attain different conformations (open conformer and closed conformer PDB ID: 1ZH1, 3FQM, respectively); thus, there is the potential for different binding modes of daclatasvir and our molecules, at the active center of the NS5A protein, leading to synergism.
The coefficient of Drug interactions (CDI) is calculated as follows: CDI = AB / (A × B), where AB is the ratio of the combination groups to the control group; A or B is the ratio of the single-agent group to the control group.
Figure 4 Synergistic anti-HCV activity of compound 26 with daclatasvir (DCV). Huh5-2 cells were treated with 30 pM or […] of DCV was used to in the presence or absence of the analog. F-Luc activity was quantified as relative light units (RLU) per μg of total protein. Values derived from cells treated with the solvent DMSO (control—C) were set to 100%. CDI: coefficient of drug interaction. Bars show mean values derived from three independent experiments in triplicate. Error bars denote standard deviation (SD). TEXT PRINTED IN THE PICTURE: 26 + DCV: CDI: 0,68 (DCV 15 pM - Comp. 26 25 pM); CDI: 0,70 (DCV 30 pM - Comp. 26 50 pM)

[5] = Cytotoxicity by intracellular ATP levels; assay type: cell-based; settings: human, Huh5-2 cells, read-out: HCV Replicon 1b CC50
Procedure: as §1, §3
ATP was measured using the ViaLight HS BioAssay kit (Lonza) according to the manufacturer’s protocol in a GloMax 20/20 single-tube luminometer (Promega) for 1 s. Values were normalized to total protein amounts.

[6] = system: HCV subgenomic replicon of genotype 3a (strain S52); assay: Anti-HCV 3a activity, replicon assay in Huh7.5-3a cells; assay type: cell-based, Hepatitis C virus
Excerpt: as §4, §2, §5, §6

CCOC(=O)N[C@@H](C(=O)N1CCC[C@H]1C(=O)Nc1ccc2c(c1)Cc1cc(NC(=O)[C@@H]3CCCN3C(=O)[C@H](NC(=O)OCC)c3ccccc3)ccc1-2)c1ccccc1 [Compound 26, Diethyl((1R,1’R)-((2S,2’S)-(((9H-fluorene-2,7-diyl)bis(azanediyl))bis(carbonyl))bis(pyrrolidine-2,1-diyl))bis(2-oxo-1-phenylethane-2,1-diyl))dicarbamate]
fold more active than S counterparts ([1]; 25 vs 21, 26 vs 22, HCV 1b EC50 ratio): 200 fold
EC50 ([1]; Huh-5-2, 72 h, read-out: HCV Replicon 1b EC50): 0.036 nM
EC50 ([1]; Huh-5-2, read-out: EC50 against HCV genotype 1b): 0.04 nM
selectivity index relative to daclatasvir ([1]; SI50 ratio): four-fold better
EC50 [2]: 0.03 nM
EC50 [3]: 117 nM
CDI ([4]; DCV 15 pM - Comp. 26 25 pM): 0,68
CDI ([4]; DCV 30 pM - Comp. 26 50 pM): 0,70
coefficient of drug interaction (CDI) ([4]; compound 26 with daclatasvir, CDI <1 synergistic): ≈ 0.7
CC50 at 72 h [5]: > 100000 nM
effect on GT 3a relative to daclatasvir ([6]; EC50 ratio): seven-fold higher
EC50 ([6]; Hepatitis C virus, read-out: EC50 GT 3a): 1.2 nM
